Laboratory results published in patent US8388950B2, “Coenzyme Q10-containing water-soluble composition and process for production thereof” (Kaneka Corporation, priority 2005, dated 2013).

Experiment: DSC determination of the crystallization peak of coenzyme Q10 (effect of preventing crystallization)
Type: physicochemical
Conditions: held at 80° C. 10 minutes, cooled to −50° C. at −5° C./min
Method: The component materials shown in Table 1 were warmed and dissolved at 60° C., and weighed out the appropriate amount on a measuring aluminum pan to make samples for DSC determination.
Using the samples obtained in Reference Examples 1 to 10, the effect of preventing coenzyme Q10 crystallization derived from a lipophilic sucrose fatty acid ester was determined by DSC (differential scanning calorimetry).
Detector: DSC6220 (manufactured by SII Nano Technology Inc.)
Determination condition: the crystallization peak (exothermic peak) of coenzyme Q10 was determined after retaining the samples at 80° C. for 10 minutes and then cooling them to −50° C. at a cooling rate of −5° C./rain.

Structure (SMILES): COC1=C(OC)C(=O)C(C/C=C(\C)CC/C=C(\C)CC/C=C(\C)CC/C=C(\C)CC/C=C(\C)CC/C=C(\C)CC/C=C(\C)CC/C=C(\C)CC/C=C(\C)CCC=C(C)C)=C(C)C1=O [compound 4, Coenzyme Q10]
- DSC exothermic peak: −11.4 °C
